The source of these data is ChEMBL document CHEMBL3046145, “Computational and experimental evaluation of ornithine derivatives as ornithine decarboxylase inhibitors” (Med Chem Res, 2009).

Activity calls are given as the source filed them. The calls are words filed in the database; no cut-off is given here.

One data set deals with T1, Ornithine decarboxylase (Homo sapiens, UniProt P11926).
T1 sequence (P11926 whole entry): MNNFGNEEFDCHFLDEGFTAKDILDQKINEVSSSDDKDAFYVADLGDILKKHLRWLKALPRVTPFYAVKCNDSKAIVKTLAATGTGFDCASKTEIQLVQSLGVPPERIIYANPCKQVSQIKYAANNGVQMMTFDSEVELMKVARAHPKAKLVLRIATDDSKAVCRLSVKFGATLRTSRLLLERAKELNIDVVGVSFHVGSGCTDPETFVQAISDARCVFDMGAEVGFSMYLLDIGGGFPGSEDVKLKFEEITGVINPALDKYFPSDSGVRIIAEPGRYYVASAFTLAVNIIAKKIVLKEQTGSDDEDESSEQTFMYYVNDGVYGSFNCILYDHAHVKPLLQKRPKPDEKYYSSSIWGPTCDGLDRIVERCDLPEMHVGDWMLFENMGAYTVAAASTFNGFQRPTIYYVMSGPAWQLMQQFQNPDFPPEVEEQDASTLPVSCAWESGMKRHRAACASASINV
Kind of data set: Binding affinity to ODC (unknown origin).

Another data set is filed under the species Rattus norvegicus. As to the kind of experiment: Toxicity in Rattus norvegicus (rat). The format is organism-based. The following applies: in vivo.
A short description of data set [1]: Toxicity in ip dosed Mus musculus CD1 (mouse) assessed as mortality. In kind it is organism-based. The conditions noted are these: in vivo.
Data set [2] concerns the target T2, Ornithine decarboxylase (Rattus norvegicus) (UniProt P09057).
T2 sequence (whole entry): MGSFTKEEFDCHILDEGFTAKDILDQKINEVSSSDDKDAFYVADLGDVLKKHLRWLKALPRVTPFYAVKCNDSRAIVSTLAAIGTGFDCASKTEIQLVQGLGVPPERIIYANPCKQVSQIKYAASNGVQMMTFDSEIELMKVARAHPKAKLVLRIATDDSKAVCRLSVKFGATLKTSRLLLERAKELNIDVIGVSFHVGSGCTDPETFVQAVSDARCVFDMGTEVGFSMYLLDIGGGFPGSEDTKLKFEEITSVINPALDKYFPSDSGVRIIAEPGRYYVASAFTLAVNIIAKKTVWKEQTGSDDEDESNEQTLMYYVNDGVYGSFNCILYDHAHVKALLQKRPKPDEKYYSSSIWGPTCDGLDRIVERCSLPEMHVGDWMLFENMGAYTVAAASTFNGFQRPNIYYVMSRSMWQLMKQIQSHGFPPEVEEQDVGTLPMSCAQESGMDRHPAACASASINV
Kind of data set: Inhibition of Rattus norvegicus Wistar (rat) rat liver ODC assessed as inhibition of 14CO2 release from L-[14C]ornithine.

Regarding `NCCC[C@H](N)C(=O)O` [ORNITHINE], the Kd on Ornithine decarboxylase was determined as 250 µM.
On to `NCCC[C@](N)(C(=O)O)C(F)F` [EFLORNITHINE, (S)-], for which, in the data set filed under Rattus norvegicus, the LD50 turned out to be 300 µg.
With `NCCC[C@H](NN)C(=O)O` [ALPHA-HYDRAZINE ORNITHINE], the Kd at Ornithine decarboxylase was 0.5 µM.
On to `N[C@@H](CCCNC(=O)CCl)C(=O)O`, for which, in data set [1], the LD50 amounted to 381 mg/kg. Besides, binding on Ornithine decarboxylase was put at a Kd of 2500 µM. The inhibition entry in data set [2] was “Active”.
Compound `NCCC[C@@](N)(CF)C(=O)O` registered a Kd at Ornithine decarboxylase of 75 µM.

Broadly, the Kd is the constant that tells how readily two partners part at equilibrium. The low end stands for higher affinity, the high end for lower affinity.
